The source of these data is patent US20230382904A1, “SUBSTITUTED 4-([1,2,4]TRIAZOLO[1,5-a]PYRIDIN-6-YL)THIOPHENE-2-CARBOXAMIDE DERIVATIVES AND USE THEREOF” (The Johns Hopkins University, priority 2020, published 2023).

The target of assay [1] is LZK (Homo sapiens (Human), UniProt O43283). In words: LZK biochemical assay (TR-FRET, MKK7 phosphorylation). In a few lines: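 Catalytic-domain LZK (10 nM) phosphorylated His-MKK7 (15 nM) with 15 μM ATP for 90 min at RT. Phospho-T275/S277 detected by Eu-anti-phospho-MKK7/XL665-anti-His TR-FRET after 16 h at 32° C, using the 665/Eu ratio. Buffer: 50 mM Hepes pH 7.5, 10 mM MgCl2, 1 mM DTT.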
Chain of LZK (O43283 168-409): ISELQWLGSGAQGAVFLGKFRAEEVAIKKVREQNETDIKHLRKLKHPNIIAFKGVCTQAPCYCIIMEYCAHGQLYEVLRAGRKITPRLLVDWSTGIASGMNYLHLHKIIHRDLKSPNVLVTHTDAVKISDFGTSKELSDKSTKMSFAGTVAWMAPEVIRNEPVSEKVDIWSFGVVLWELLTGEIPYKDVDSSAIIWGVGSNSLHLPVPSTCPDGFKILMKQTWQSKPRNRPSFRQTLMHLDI
(Time-resolved FRET reads energy transfer from a long-lived donor to a nearby acceptor.)

Assay [2] deals with DLK (Homo sapiens (Human), UniProt Q12852). In words: DLK biochemical assay (TR-FRET, MKK7 phosphorylation). In a few lines:
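Catalytic-domain DLK (10 nM) phosphorylates His-MKK7 (15 nM) with 60 μM ATP, 90 min at RT, in pH 7.5 HEPES buffer. Phospho-T275/S277 read by TR-FRET (Eu anti-phospho donor, XL665 anti-His acceptor) after 16 h detection, at 37° C. in 1536 or 4° C. in 384 format.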

Chain of DLK (Q12852 1-520): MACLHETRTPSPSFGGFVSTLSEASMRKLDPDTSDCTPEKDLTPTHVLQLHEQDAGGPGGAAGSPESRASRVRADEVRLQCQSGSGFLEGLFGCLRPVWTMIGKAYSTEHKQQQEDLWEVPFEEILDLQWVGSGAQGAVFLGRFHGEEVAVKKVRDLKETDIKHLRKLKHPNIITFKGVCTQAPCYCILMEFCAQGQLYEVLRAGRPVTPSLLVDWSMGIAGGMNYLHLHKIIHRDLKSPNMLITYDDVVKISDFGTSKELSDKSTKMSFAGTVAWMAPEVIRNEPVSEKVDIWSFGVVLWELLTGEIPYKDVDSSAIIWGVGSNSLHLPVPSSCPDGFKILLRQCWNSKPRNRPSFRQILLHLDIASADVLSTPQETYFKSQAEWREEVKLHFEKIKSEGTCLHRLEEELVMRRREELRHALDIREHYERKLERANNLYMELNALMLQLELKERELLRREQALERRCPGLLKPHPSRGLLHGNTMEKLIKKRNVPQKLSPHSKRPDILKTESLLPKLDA

By IC50 is commonly meant the concentration that inhibits the measured activity by half. A lower IC50 goes with inhibition by little substance. For `Nc1nc2ccc(-c3csc(C(=O)NCc4ncco4)c3)cn2n1` [Compound 239], the figures for the IC50 in assay [1] and in assay [2] were 18 µM and 1.85 µM, respectively.
The corresponding values for `CC[C@@H](NC(=O)c1cc(-c2cc(C(=O)N[C@H]3CCOC3)c3nc(N)nn3c2)cs1)c1ccc(F)cc1` [Compound 135] are 0.25 µM and 0.0074 µM.
Take `COC[C@H](NC(=O)c1cc(-c2cc(C(=O)NC(C)C)c3nc(N)nn3c2)cs1)c1ccc(F)cc1` [Compound 130]: the IC50 in assay [1] was found to be 0.12 µM; in assay [2], 0.014 µM.
Regarding `C[C@H]1CCC[C@@H](NC(=O)c2cc(-c3ccc4nc(N)nn4c3)cs2)C1` (single isomer, unassigned) [Compound 165], the IC50 in assay [1] is above 30 µM; in assay [2], 0.88 µM.
The corresponding values for `Cc1ccccc1NC(=O)c1cc(-c2ccc3nc(N)nn3c2)cs1` [Compound 227] are above 30 µM and 0.835 µM.
The corresponding values for `C[C@H](NC(=O)c1cc(-c2ccc3nc(N)nn3c2)cs1)c1ccc(OC(F)(F)F)cc1` [Compound 356] are above 30 µM and 0.31 µM.
The corresponding values for `Nc1nc2ccc(-c3csc(C(=O)NCc4cn5ccccc5n4)c3)cn2n1` [Compound 257] are above 30 µM and 1.1 µM.
`CC[C@H](NC(=O)c1cc(-c2cc(C(=O)NC(C)C)c3nc(N)nn3c2)cs1)c1ccc(F)cc1` [Compound 108]: the IC50 in assay [1] is 0.025 µM; in assay [2], 0.004 µM.
The corresponding values for `CC(C)NC(=O)c1cc(-c2csc(C(=O)NCc3nc4ccccc4o3)c2)cc2nc(N)nn12` [Compound 151] are 0.1 µM and 0.036 µM.
`COc1ccc2oc(CNC(=O)c3cc(-c4ccc5nc(N)nn5c4)cs3)nc2c1` [Compound 247]: the IC50 in assay [1] stood at 3.8 µM; in assay [2], 0.8 µM.
The corresponding values for `CCc1nnc(-c2cc(-c3csc(C(=O)N[C@@H](C)c4ccc(F)cc4)c3)cn3nc(N)nc23)s1` [Compound 397] are 1.1 µM and 0.073 µM.
Consider `CN1CCN(Cc2ccc(CNC(=O)c3cc(-c4ccc5nc(N)nn5c4)cs3)cc2)CC1` [Compound 343], for which the IC50 in assay [1] turned out to be 27 µM; in assay [2] it was 0.86 µM.
The corresponding values for `CC[C@H](NC(=O)c1cc(-c2cc(C(=O)NC(C)CF)c3nc(N)nn3c2)cs1)c1ccc(F)cc1` (stereo partly drawn) [Compound 144-1] are 0.042 µM and 0.0046 µM.
The corresponding values for `CCO[C@H]1CC[C@H](NC(=O)c2cc(-c3ccc4nc(N)nn4c3)cs2)CC1` [Compound 177] are above 30 µM and 1.6 µM.
As to `Nc1nc2ccc(-c3csc(C(=O)NC4(c5ccc(F)cc5)COC4)c3)cn2n1` [Compound 314], the IC50 in assay [1] was 7 µM; in assay [2] it was 0.53 µM.
The corresponding values for `Nc1nc2cc(F)c(-c3csc(C(=O)NCc4ccccc4)c3)cn2n1` [Compound 297] are 11 µM and 0.71 µM.
The corresponding values for `CCNS(=O)(=O)c1cc(-c2csc(C(=O)N[C@@H](C)c3ccc(F)cc3)c2)cn2nc(N)nc12` [Compound 385] are above 30 µM and 11 µM.
The corresponding values for `CC(NC(=O)c1cc(-c2ccc3nc(N)nn3c2)cs1)c1nc2ccccc2n1C` (stereo not drawn) [Compound 335] are 3.5 µM and 0.14 µM.
For `CC[C@H](NC(=O)c1cc(-c2cc(C(=O)N[C@@H]3CCOC3)c3nc(N)nn3c2)cs1)c1ccccc1` [Compound 104], the IC50 was 0.0305 µM in assay [1] and 0.0017 µM in assay [2].
For the compound `Nc1nc2ccc(-c3csc(C(=O)NCc4ccc(CN5CCCC5=O)cc4)c3)cn2n1` [Compound 328], the IC50 was 8.2 µM in assay [1] and 0.4 µM in assay [2].
The corresponding values for `Nc1nc2c(C(=O)NC3CCNC3)cc(-c3csc(C(=O)NCc4ccc(F)cc4)c3)cn2n1` (stereo not drawn) [Compound 22] are 0.65 µM and 0.185 µM.
The corresponding values for `CC(C)NC(=O)c1cc(-c2csc(C(N)=O)c2)cn2nc(N)nc12` [Compound 85] are 0.9 µM and 0.36 µM.
The corresponding values for `CC(C)(CO)NC(=O)c1cc(-c2csc(C(=O)NCc3ccc(F)cc3)c2)cn2nc(N)nc12` [Compound 80] are 0.13 µM and 0.0565 µM.
Take `CC(C)NC(=O)c1cc(-c2csc(C(=O)NCc3ccccc3)c2)cc2nc(N)nn12` [Compound 149]: the IC50 in assay [1] was found to be 0.11 µM; in assay [2], 0.028 µM.
The corresponding values for `C[C@H]1CCC[C@@H](NC(=O)c2cc(-c3ccc4nc(N)nn4c3)cs2)C1` (single isomer, unassigned) [Compound 200] are above 30 µM and 0.56 µM.
The corresponding values for `CC(C)NC(=O)c1cc(-c2csc(C(=O)NC3CC(C)(C)Oc4ccccc43)c2)cn2nc(N)nc12` (stereo not drawn) [Compound 132] are 0.73 µM and 0.028 µM.
The corresponding values for `CC(NC(=O)c1cc(-c2ccc3nc(N)nn3c2)cs1)c1nc2c(s1)CCCC2` (stereo not drawn) [Compound 332] are 3.1 µM and 0.15 µM.
As to `CC[C@H](NC(=O)c1cc(-c2cc(C(=O)NC3(CO)CC3)c3nc(N)nn3c2)cs1)c1ccc(F)cc1` [Compound 140], the IC50 in assay [1] stood at 0.79 µM; in assay [2] it was 0.072 µM.
Consider `CCC(C)c1nnc(-c2cc(-c3csc(C(=O)N[C@@H](C)c4ccc(F)cc4)c3)cn3nc(N)nc23)s1` (stereo partly drawn) [Compound 399], for which the IC50 in assay [1] worked out at 3.95 µM; in assay [2], 1.76 µM.
The corresponding values for `C[C@H](NC(=O)c1cc(-c2cc(C(=O)NCC(F)(F)F)c3nc(N)nn3c2)cs1)c1ccc(F)cc1` [Compound 63] are 4.6 µM and 0.12 µM.
The corresponding values for `COc1cccc(CNC(=O)c2cc(-c3cn4nc(N)nc4cc3F)cs2)c1` [Compound 296] are 12 µM and 0.73 µM.
Consider `C[C@H](NC(=O)c1cc(-c2cc(C(=O)N[C@H]3CCOC3)c3nc(N)nn3c2)cs1)c1ccc(C(F)(F)F)cc1` [Compound 105], for which the IC50 came to 0.55 µM in assay [1] and 0.02 µM in assay [2].
The corresponding values for `Nc1nc2c(C(=O)N[C@H]3CCOC3)cc(-c3csc(C(=O)NCc4ccccc4)c3)cn2n1` [Compound 103] are 0.16 µM and 0.025 µM.
`CC(NC(=O)c1cc(-c2ccc3nc(N)nn3c2)cs1)c1cnn(C)c1` (stereo not drawn) [Compound 330]: the IC50 in assay [1] worked out at 12 µM; in assay [2] it was 0.64 µM.
The corresponding values for `CC(C)NC(=O)c1cc(-c2csc(C(=O)N[C@@H](C)c3nc4ccccc4o3)c2)cn2nc(N)nc12` [Compound 95] are 0.13 µM and 0.014 µM.
The corresponding values for `CNS(=O)(=O)c1cc(-c2csc(C(=O)N[C@@H](C)c3ccc(F)cc3)c2)cn2nc(N)nc12` [Compound 386] are above 30 µM and 3.4 µM.
Turning to `CC(C)NC(=O)c1cc(-c2csc(C(=O)N[C@H]3CCOc4ccccc43)c2)cn2nc(N)nc12` [Compound 120], the IC50 in assay [1] amounted to 0.11 µM; in assay [2], 0.0069 µM.
The corresponding values for `CCc1nnc(-c2cc(-c3csc(C(=O)N[C@@H](C)c4ccc(F)cc4)c3)cn3nc(N)nc23)o1` [Compound 396] are 0.98 µM and 0.31 µM.
The corresponding values for `C[C@H](NC(=O)c1cc(-c2cc(C(=O)NC3COC3)c3nc(N)nn3c2)cs1)c1ccccc1` [Compound 65] are 19 µM and 0.1 µM.
The corresponding values for `COc1cccc([C@H](C)NC(=O)c2cc(-c3ccc4nc(N)nn4c3)cs2)c1` [Compound 263] are above 30 µM and 0.355 µM.
As for `COC[C@H](NC(=O)c1cc(-c2cc(C(=O)NC(C)C)c3nc(N)nn3c2)cs1)c1ccccc1` (stereo in doubt) [Compound 91], the IC50 was 0.048 µM in assay [1] and 0.0033 µM in assay [2].
The corresponding values for `CC1(C)CC(NC(=O)c2cc(-c3ccc4nc(N)nn4c3)cs2)c2ccccc2O1` (stereo not drawn) [Compound 316] are 4.7 µM and 0.18 µM.
For the compound `CC(C)(NC(=O)c1cc(-c2ccc3nc(N)nn3c2)cs1)c1ccc(F)cc1` [Compound 308], the IC50 came out at 3 µM in assay [1] and 0.3 µM in assay [2].
The corresponding values for `COc1ccccc1NC(=O)c1cc(-c2ccc3nc(N)nn3c2)cs1` [Compound 228] are above 30 µM and 0.48 µM.
The corresponding values for `Nc1nc2ccc(-c3csc(C(=O)NCc4ccc(OCCN5CCCCC5)cc4)c3)cn2n1` [Compound 279] are above 30 µM and 2.1 µM.
The corresponding values for `Cc1cc(-c2csc(C(=O)NCc3ccc(F)cc3)c2)cn2nc(N)nc12` [Compound 371] are 2.3 µM and 0.5 µM.
As to `Cc1ccc([C@H](C)NC(=O)c2cc(-c3ccc4nc(N)nn4c3)cs2)cc1` [Compound 349], the figures for the IC50 in assay [1] and in assay [2] were 24 µM and 0.23 µM, respectively.
In the case of `CCOc1ccccc1CNC(=O)c1cc(-c2ccc3nc(N)nn3c2)cs1` [Compound 226], the IC50 in assay [1] was 5 µM; in assay [2], 0.67 µM.
Turning to `Nc1nc2ccc(-c3csc(C(=O)NCc4cccc(OC(F)(F)F)c4)c3)cn2n1` [Compound 192], the IC50 in assay [1] is above 30 µM; in assay [2], 0.46 µM.
`C[C@H](NC(=O)c1cc(-c2cc(C(=O)N[C@@H](C)CO)c3nc(N)nn3c2)cs1)c1nc2ccccc2o1` [Compound 100]: the IC50 in assay [1] stood at 0.2 µM; in assay [2], 0.0058 µM.
The corresponding values for `Cc1cccc(C)c1NC(=O)c1cc(-c2ccn3nc(N)nc3c2)cs1` [Compound 368] are 13 µM and 0.67 µM.
